Measurements published in US9018215B2, “Heteroaromatic compounds, medicaments containing said compounds, use thereof and processes for the preparation thereof” (Boehringer Ingelheim International GmbH, priority 2013, dated 2015).

Target: T1, ENaC (Epithelial Sodium Channel) (Mus musculus, UniProt Q61180+Q9WU38+Q9WU39)
T1 construct: Mouse kidney M-1 cells were cultivated in DMEM containing 5% FCS and 5 μM dexamethasone; endogenous in cells; host or cells: mouse kidney M-1 cells
T1 sequence (Q61180 1-699): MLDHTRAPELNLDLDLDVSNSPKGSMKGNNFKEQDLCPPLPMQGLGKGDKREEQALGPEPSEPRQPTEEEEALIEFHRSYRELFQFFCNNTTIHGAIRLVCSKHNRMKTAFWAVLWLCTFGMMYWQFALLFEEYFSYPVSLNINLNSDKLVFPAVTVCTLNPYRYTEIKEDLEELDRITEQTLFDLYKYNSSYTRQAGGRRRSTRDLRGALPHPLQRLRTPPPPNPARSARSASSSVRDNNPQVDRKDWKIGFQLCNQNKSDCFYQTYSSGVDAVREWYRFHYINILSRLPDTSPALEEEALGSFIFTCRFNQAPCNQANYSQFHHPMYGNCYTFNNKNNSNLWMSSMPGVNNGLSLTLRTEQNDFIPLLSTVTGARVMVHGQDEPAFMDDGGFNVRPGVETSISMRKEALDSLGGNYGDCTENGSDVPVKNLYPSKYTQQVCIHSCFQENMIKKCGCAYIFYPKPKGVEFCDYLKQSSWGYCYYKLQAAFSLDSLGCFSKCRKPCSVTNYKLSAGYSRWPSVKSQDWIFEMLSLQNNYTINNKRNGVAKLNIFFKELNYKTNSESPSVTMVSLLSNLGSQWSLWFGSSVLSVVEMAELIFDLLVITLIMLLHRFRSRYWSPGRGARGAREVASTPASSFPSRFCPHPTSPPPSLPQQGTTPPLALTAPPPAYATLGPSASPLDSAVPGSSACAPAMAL
T1 sequence (Q9WU38 1-638): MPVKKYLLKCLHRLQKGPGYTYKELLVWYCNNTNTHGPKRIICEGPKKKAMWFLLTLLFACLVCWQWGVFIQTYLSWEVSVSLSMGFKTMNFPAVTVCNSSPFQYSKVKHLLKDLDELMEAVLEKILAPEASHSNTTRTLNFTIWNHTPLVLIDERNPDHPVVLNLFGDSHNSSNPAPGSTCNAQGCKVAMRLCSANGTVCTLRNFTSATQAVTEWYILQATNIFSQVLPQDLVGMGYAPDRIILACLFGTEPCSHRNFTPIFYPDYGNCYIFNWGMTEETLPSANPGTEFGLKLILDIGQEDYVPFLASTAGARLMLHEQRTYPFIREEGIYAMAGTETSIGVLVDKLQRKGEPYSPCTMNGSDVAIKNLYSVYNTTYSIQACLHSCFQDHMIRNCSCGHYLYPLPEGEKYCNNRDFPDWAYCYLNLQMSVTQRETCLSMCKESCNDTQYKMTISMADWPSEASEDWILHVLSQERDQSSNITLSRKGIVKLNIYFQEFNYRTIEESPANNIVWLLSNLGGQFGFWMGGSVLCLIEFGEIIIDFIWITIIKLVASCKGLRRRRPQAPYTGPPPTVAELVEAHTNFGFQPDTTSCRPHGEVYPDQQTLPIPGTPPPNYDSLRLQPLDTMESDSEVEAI
T1 sequence (Q9WU39 1-655): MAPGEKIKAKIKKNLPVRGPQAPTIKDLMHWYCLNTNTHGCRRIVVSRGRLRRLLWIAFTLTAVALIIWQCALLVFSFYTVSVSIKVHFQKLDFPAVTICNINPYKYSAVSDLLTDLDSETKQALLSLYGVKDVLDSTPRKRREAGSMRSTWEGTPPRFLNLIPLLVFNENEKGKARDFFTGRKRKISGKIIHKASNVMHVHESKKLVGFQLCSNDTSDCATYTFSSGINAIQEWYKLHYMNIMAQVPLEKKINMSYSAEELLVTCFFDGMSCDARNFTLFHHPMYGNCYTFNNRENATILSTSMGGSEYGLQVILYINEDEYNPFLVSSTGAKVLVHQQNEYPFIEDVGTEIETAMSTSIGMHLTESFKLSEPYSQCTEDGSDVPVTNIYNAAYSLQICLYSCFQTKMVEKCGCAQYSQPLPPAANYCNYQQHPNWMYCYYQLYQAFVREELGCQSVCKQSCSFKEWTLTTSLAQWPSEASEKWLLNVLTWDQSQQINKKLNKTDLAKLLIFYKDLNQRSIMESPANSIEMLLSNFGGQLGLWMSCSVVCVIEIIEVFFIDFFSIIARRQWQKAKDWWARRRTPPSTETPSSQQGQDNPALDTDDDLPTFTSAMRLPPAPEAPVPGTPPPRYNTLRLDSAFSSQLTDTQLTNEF
Assay: Ussing chamber assay: short circuit current (I_sc) in M-1 cells, inhibition of the amiloride sensitive I_SC
Assay type: cell-based
Settings: Mouse kidney M-1 cells on transwell filters, compounds added to the apical solution, 37° C., voltage-clamp mode
Protocol: Mouse kidney M-1 cells were cultivated in DMEM containing 5% FCS and 5 μM dexamethasone for 10 to 12 days on polyester transwell filters. Filters were inserted into a teflon-coated well-plate which fit into the in-house ussing chamber system. Prior to measurement the medium of M-1 cells was replaced with Caco-2 transport buffer (Invitrogen, Germany). During measurements, the Ussing chamber temperature was kept at 37° C. Short circuit currents (I_sc) were measured in the voltage-clamp mode using an in-house built amplifier (Boehringer Ingelheim, Biberach) with the software package Lab View for data acquisition and analysis. The transepithelial electrical resistance (TEER) was determined by the application of voltage steps of ±5 mV every 5 sec. Compounds were administered at a final concentration of 3 μM or at increasing concentrations (1-3-10 μM) to the apical solution. At the end of each experiment the amiloride sensitive I_SC was measured by adding 3 μM amiloride to the apical compartment. Results are expressed as inhibition in percent of the amiloride effect or as IC50. With the example compounds given above, the following IC50 values were determined in the Ussing Chamber assay: […]

Compound `COC(=O)c1cc(CN2CCC(N/C(N)=N/C(=O)c3nc(Cl)c(N)nc3N)CC2)ccn1` [Example 1.1] has an IC50 of 3 nM.
`NC(=NC(=O)c1nc(Cl)c(N)nc1N)NC1CCN(Cc2ccnc(C(=O)N(CCO)CCO)c2)CC1` [Example 1.2] was tested, and the IC50 was 10 nM.
Compound `NC(=NC(=O)c1nc(Cl)c(N)nc1N)NC1CCN(Cc2cn3cc(C(=O)NCCOCCO)ccc3n2)CC1` [Example 1.3] has an IC50 of 18 nM.
`NC(=NC(=O)c1nc(Cl)c(N)nc1N)NC1CCN(Cc2ccc(CCc3cccnc3)nc2)CC1` [Example 1.4] showed an IC50 of 3 nM.
`NC(=NC(=O)c1nc(Cl)c(N)nc1N)NC1CCN(Cc2ccccn2)CC1` [Example 1.5] showed an IC50 of 15 nM.
`NC(=NC(=O)c1nc(Cl)c(N)nc1N)NC1CCN(Cc2ccc(=O)n(Cc3cccnc3)c2)CC1` [Example 1.6] was tested, and the IC50 was 9 nM.
In the case of `COC(=O)c1ccc2nc(CN3CCC(NC(N)=NC(=O)c4nc(Cl)c(N)nc4N)CC3)cn2c1` [Example 1.7], the IC50 is reported as 4 nM.
With `NC(=NC(=O)c1nc(Cl)c(N)nc1N)NC1CCN(Cc2cn3cc(C(=O)NCCO)ccc3n2)CC1` [Example 1.8] the IC50 was 11 nM.
Work on `NC(=NC(=O)c1nc(Cl)c(N)nc1N)NC1CCN(Cc2cscn2)CC1` [Example 1.9] yielded an IC50 of 17 nM.
`NC(=NC(=O)c1nc(Cl)c(N)nc1N)NC1CCN(Cc2nc3ccccc3c(=O)[nH]2)CC1` [Example 1.10] was tested, and the IC50 was 4 nM.
For `COC(=O)c1ccc(CN2CCC(NC(N)=NC(=O)c3nc(Cl)c(N)nc3N)CC2)s1` [Example 1.11], the IC50 was 3 nM.
With `C#Cc1cncc(CN2CCC(NC(N)=NC(=O)c3nc(Cl)c(N)nc3N)CC2)c1` [Example 1.12] the IC50 was 4 nM.
`NC(=NC(=O)c1nc(Cl)c(N)nc1N)NC1CCN(Cc2cn3cc(I)ccc3n2)CC1` [Example 1.13] showed an IC50 of 3 nM.
`NC(=NC(=O)c1nc(Cl)c(N)nc1N)NC1CCN(Cc2ccnc(C(=O)NCCOCCO)c2)CC1` [Example 1.14] was tested, and the IC50 was 4 nM.
In the case of `NC(=NC(=O)c1nc(Cl)c(N)nc1N)NC1CCN(Cc2cn3ccccc3n2)CC1` [Example 1.15], the IC50 is reported as 6 nM.
Work on `NC(=NC(=O)c1nc(Cl)c(N)nc1N)NC1CCN(Cc2nc3ccccc3[nH]2)CC1` [Example 1.16] yielded an IC50 of 5 nM.
`NC(=NC(=O)c1nc(Cl)c(N)nc1N)NC1CCN(Cc2ccc(Br)nc2)CC1` [Example 1.17] gave an IC50 of 5 nM.
For `COC(=O)c1cc(CN2CCC(N/C(N)=N/C(=O)c3nc(Br)c(N)nc3N)CC2)ccn1` [Example 1.19], the IC50 was 4 nM.
In the case of `N/C(=N\C(=O)c1nc(Cl)c(N)nc1N)NC1CCN(Cc2ccc(=O)n(Cc3cn(Cc4ccccn4)nn3)c2)CC1` [Example 2.1], the IC50 is reported as 6 nM.
In the case of `N/C(=N\C(=O)c1nc(Cl)c(N)nc1N)NC1CCN(Cc2cncc(-c3cn(CCOCCOCCOCCO)nn3)c2)CC1` [Example 2.2], the IC50 is reported as 12 nM.
With `N/C(=N\C(=O)c1nc(Cl)c(N)nc1N)NC1CCN(Cc2ccnc(C(=O)O)c2)CC1` [Example 3.1] the IC50 was 21 nM.
Compound `N/C(=N\C(=O)c1nc(Cl)c(N)nc1N)NC1CCN(Cc2ccc(C(=O)O)s2)CC1` [Example 3.2] has an IC50 of 31 nM.
Compound `N/C(=N\C(=O)c1nc(Br)c(N)nc1N)NC1CCN(Cc2ccnc(C(=O)O)c2)CC1` [Example 4.1] has an IC50 of 16 nM.
